Tests used:
Format in all cases: in vivo, human
[1] = tested on: subjects with Age-Associated Memory Impairment; experiment: Safety and tolerability (TEAEs), 6-week AAMI study
Protocol: All randomized subjects that received at least 1 dose of study medication were included in the Safety Population.
Safety evaluations were based on the safety population. Safety and tolerability were assessed in terms of AEs, vital signs, 12-lead ECG, clinical laboratory data, medical history, and study drug compliance. Safety and tolerability data were presented by treatment group.

[2] = tested on: patients with eGFR <90 mL/min/1.73 m^2 for ≥3 months and hsCRP ≥2.0 mg/L; experiment: ANCHOR post-hoc (eGFR <90, hsCRP ≥2.0 mg/L): renal parameters; conditions: 4 g/day
Protocol: CVD-related (e.g., atherogenic) parameters were analyzed in a post-hoc study of 152 patients from the multi-center, placebo-controlled, randomized double-blind, 12-week study described in Example 1. These 152 patients have reduced kidney reduced function (e.g., eGFR<90 mL/min/1.73 m^2 for ≥3 months) and hsCRP≥2.0 mg/L.

[3] = tested on: patients with chronic kidney disease (eGFR <60 mL/min/1.73 m^2 for ≥3 months); experiment: ANCHOR post-hoc (CKD): renal parameters and TEAEs
Protocol: CVD-related (e.g., atherogenic) parameters were analyzed in a post-hoc study of 55 patients from the multi-center, placebo-controlled, randomized double-blind, 12-week study described in Example 1. These 55 patients have chronic kidney disease (e.g., eGFR<60 mL/min/1.73 m^2 for ≥3 months). There was no lower limit of eGFR specified. Analysis: The median difference in percent change from baseline between 4 g/day of E-EPA and placebo for the primary efficacy variable and additional assessments were estimated using the Hodges-Lehmann method (P values from the Wilcoxon rank-sum test for treatment comparisons). Using the Hodges-Lehmann method, departures from normal distribution were observed; for normally distributed parameters, an analysis of covariance model was used with least squares (LS) means and standard errors (SE). Missing values were imputed using the last-observation-carried-forward method. For all post hoc analyses, the alpha for statistical significance was 0.05.

[4] = 4 g/day group, before treatment

CC/C=C\C/C=C\C/C=C\C/C=C\C/C=C\CCCC(=O)OCC [E-EPA, ethyl eicosapentaenoate]
subjects with nausea Possibly Related to the study drug ([1]; 1 g E-EPA cohort): two
TEAE Probably Related to the study drug ([1]; 1 g E-EPA, one subject): nausea
subjects with nausea Possibly Related to the study drug ([1]; 2 g E-EPA cohort): one
Serious Adverse Event (worsening epigastric chest pain), relation to study drug ([1]; 2 g E-EPA, one subject): unrelated to the study drug
subjects with nausea Possibly Related to the study drug ([1]; 4 g E-EPA cohort): two
TEAE Probably Related to the study drug ([1]; 4 g E-EPA, one subject): diarrhea
SAE reported ([1]; E-EPA 2 g treatment group): One
subjects discontinued due to TEAEs ([1]; E-EPA 2 g treatment group): 2 subjects
TEAEs reported ([1]; E-EPA treatment groups (1, 2, 4 g), placebo groups 34 events): 105 events
TEAEs Definitely Related to the study drug ([1]; all groups): No TEAEs were Definitely Related to the study drug
deaths during the study ([1]; all groups): no deaths
serum creatinine after 12 weeks ([2]; before 0.9 mg/dL, no change): 0.9 mg/dL
albumin after 12 weeks ([2]; before 4.5 g/dL, no statistically significant change): 4.4 g/dL
eGFR after 12 weeks ([2]; increase from 72.4): 78.5 mL/min/1.73 m^2
BUN at week 12, median (IQR) ([3]; 4 g/day): 22.5 (11.0) mg/dL
Nausea, nasopharyngitis, and arthralgia ([3]; 4 g/day): not reported by any patients
eGFR at week 12, median (IQR) ([3]; 4 g/day): 56.0 (12.9) mL/min/1.73 m^2
serum creatinine at week 12, median (IQR) ([3]; 4 g/day): 1.2 (0.4) mg/dL
serum creatinine, BUN, or eGFR from baseline to week 12 compared to placebo ([3]; 4 g/day): did not produce significant changes
BUN at baseline, median (IQR) [3, 4]: 24.5 (12.0) mg/dL
eGFR at baseline, median (IQR) [3, 4]: 55.0 (13.8) mL/min/1.73 m^2
serum creatinine at baseline, median (IQR) [3, 4]: 1.2 (0.3) mg/dL
patients with diarrhea ([3]; 4 g/day, 2 patients): 10.5%
patients with TEAE ([3]; 4 g/day, 11 of 19 patients): 57.9%
serum albumin ([3]; 4 g/day, 12 weeks): no significant median changes from baseline
eGFR, median difference in change from baseline compared with placebo ([3]; 4 g/day, P=0.1983): −7.8%
serum creatinine, median difference in change from baseline compared with placebo ([3]; 4 g/day, P=0.1983): 6.5%
BUN, median difference in change from baseline compared with placebo ([3]; 4 g/day, P=0.5291): 5.5%
BUN, median difference in change from baseline compared with placebo ([3]; 4 g/day, P=0.5471): 1.0 mg/dL

— patent US20230248741A1, “Compositions and Methods for Lowering Triglycerides in a Subject with Reduced Kidney Function and Diabetes Mellitus” (Amarin Pharmaceuticals Ireland Limited, priority 2018, published 2023)
